Calls of active or inactive are those of the source. No cut-off for these calls is given here.
Legend:
NCI-H460 = assay: Growth inhibition of human NCI-H460 cells after 72 hrs; type: functional, cell-based; conditions: NCI-H460, 72 h
Jurkat = assay: Growth inhibition of human Jurkat cells after 72 hrs; type: functional, cell-based
ACHN = assay: Growth inhibition of human ACHN cells after 72 hrs; type: functional, cell-based
HeLa = assay: Growth inhibition of human HeLa cells after 72 hrs; type: functional, cell-based
PK9 [1] = assay: Antiproliferative activity against human PK9 cells; type: functional, cell-based
MIA PaCa-2 [2] = assay: Antiproliferative activity against human MIAPaCa2 cells; type: functional, cell-based
[3] = Induction of apoptosis in HPNE cells at 5 to 40 uM after 24 to 72 hrs by Annexin V/7-AAD staining based flow cytometry; type: cell-based; conditions: human
PANC-1 [4] = assay: Induction of apoptosis in human PANC1 cells assessed as accumulation at sub-G0/G1 phase at 10 uM after 48 hrs by propidium iodide staining based flow cytometry (reference value: 0.2 to 2.9%); type: functional
PANC-1 [5] = assay: Induction of apoptosis in human PANC1 cells assessed as accumulation at sub-G0/G1 phase at 10 uM after 72 hrs by propidium iodide staining based flow cytometry (reference value: 1.6 to 3.2%); type: functional
PANC-1 [6] = assay: Induction of apoptosis in human PANC1 cells assessed as accumulation at sub-G0/G1 phase at 10 uM after 24 hrs by propidium iodide staining based flow cytometry (reference value: 0.6 to 0.7%); type: functional
PANC-1 [7] = assay: Growth inhibition of human PANC1 cells after 72 hrs by XTT assay; type: functional, cell-based; conditions: PANC-1, 72 h
PANC-1 [8] = assay: Induction of apoptosis in human PANC1 cells assessed as accumulation at sub-G0/G1 phase at 20 uM after 72 hrs by propidium iodide staining based flow cytometry (reference value: 1.6 to 3.2%); type: functional
PK9 [9] = assay: Induction of apoptosis in human PK9 cells at 5 to 40 uM after 24 to 72 hrs by Annexin V/7-AAD staining based flow cytometry; type: functional, cell-based
Fibroblast = assay: Induction of apoptosis in human primary fibroblasts at 5 to 40 uM after 24 to 72 hrs by Annexin V/7-AAD staining based flow cytometry; type: cell-based
PANC-1 [10] = assay: Induction of apoptosis in human PANC1 cells assessed as accumulation at sub-G0/G1 phase at 20 uM after 24 hrs by propidium iodide staining based flow cytometry (reference value: 0.6 to 0.7%); type: functional
BXPC-3 [11] = assay: Growth inhibition of human BxPC3 cells after 72 hrs by XTT assay; type: functional, cell-based; conditions: BXPC-3, 72 h
PANC-1 [12] = assay: Induction of apoptosis in human PANC1 cells assessed as accumulation at sub-G0/G1 phase at 20 uM after 48 hrs by propidium iodide staining based flow cytometry (reference value: 0.2 to 2.9%); type: functional
MIA PaCa-2 [13] = assay: Induction of autophagy in human MIAPaCa2 cells assessed as increase in LC3-2 protein expression at 20 uM after 24 to 48 hrs by Western blot analysis; type: functional, cell-based
MIA PaCa-2 [14] = assay: Induction of apoptosis in human MIAPaCa2 cells assessed as necrotic cells at 20 uM after 24 hrs by Annexin V-FITC/propidium iodide staining based flow cytometry (reference value: 0.63%); type: functional
MIA PaCa-2 [15] = assay: Induction of apoptosis in human MIAPaCa2 cells assessed as early apoptotic cells at 20 uM after 24 hrs by Annexin V-FITC/propidium iodide staining based flow cytometry (reference value: 5.16%); type: functional
BXPC-3 [16] = assay: Induction of autophagy in human BxPC3 cells assessed as increase in LC3-2 protein expression at 20 uM after 24 to 48 hrs by Western blot analysis; type: functional, cell-based
MIA PaCa-2 [17] = assay: Induction of apoptosis in human MIAPaCa2 cells assessed as live cells at 20 uM after 24 hrs by Annexin V-FITC/propidium iodide staining based flow cytometry (reference value: 86.79%); type: functional
MIA PaCa-2 [18] = assay: Induction of apoptosis in human MIAPaCa2 cells assessed as necrotic cells at 20 uM after 48 hrs by Annexin V-FITC/propidium iodide staining based flow cytometry (reference value: 0.63%); type: functional
MIA PaCa-2 [19] = assay: Induction of apoptosis in human MIAPaCa2 cells assessed as increase in cleaved PARP protein expression at 20 uM after 24 to 48 hrs by Western blot analysis; type: functional, cell-based
MIA PaCa-2 [20] = assay: Induction of apoptosis in human MIAPaCa2 cells assessed as late apoptotic cells at 20 uM after 48 hrs by Annexin V-FITC/propidium iodide staining based flow cytometry (reference value: 7.4%); type: functional
BXPC-3 [21] = assay: Induction of apoptosis in human BxPC3 cells assessed as increase in cleaved PARP protein expression at 20 uM after 24 to 48 hrs by Western blot analysis; type: functional, cell-based
MIA PaCa-2 [22] = assay: Induction of apoptosis in human MIAPaCa2 cells assessed as late apoptotic cells at 20 uM after 24 hrs by Annexin V-FITC/propidium iodide staining based flow cytometry (reference value: 7.4%); type: functional
MIA PaCa-2 [23] = assay: Induction of apoptosis in human MIAPaCa2 cells assessed as early apoptotic cells at 20 uM after 48 hrs by Annexin V-FITC/propidium iodide staining based flow cytometry (reference value: 5.16%); type: functional
MIA PaCa-2 [24] = assay: Induction of apoptosis in human MIAPaCa2 cells assessed as live cells at 20 uM after 48 hrs by Annexin V-FITC/propidium iodide staining based flow cytometry (reference value: 86.79%); type: functional

Compound | IC50 (PK9 [1]) [µM] | IC50 (MIA PaCa-2 [2]) [µM] | Activity [3] | Activity (PANC-1 [4]) [%] | Activity (PANC-1 [5]) [%] | Activity (PANC-1 [6]) [%] | IC50 (PANC-1 [7]) [µM] | Activity (PANC-1 [8]) [%] | Activity (PK9 [9]) | Activity (Fibroblast) | Activity (PANC-1 [10]) [%] | IC50 (BXPC-3 [11]) [µM] | Activity (PANC-1 [12]) [%] | further results
CCCCCCCC/C=C\CCCCCCCCOC[C@H]1NC[C@H](O)[C@@H]1O | – | – | – | – | – | – | – | – | – | – | – | – | – | IC50 (NCI-H460): 9 µM; IC50 (Jurkat): 7 µM; IC50 (ACHN): 3 µM; IC50 (HeLa): 8 µM
CCCCCCCCCCCCc1cn(CC[C@H]2NC[C@@H](O)[C@H]2O)nn1 | 14 to 45 | 14 to 45 | – | – | – | – | – | – | – | – | – | – | – | –
CCCCCCCC/C=C\CCCCCCCCOC[C@@H]1CCCN1C(=O)CN.Cl | – | – | Toxic | 13.7 | 52.9 | 2.4 | 7.7 | 50.3 | Active | Toxic | 2.2 | 5.3 | 7.9 | –
Cl.NCC(=O)N1CCC[C@H]1COCCCCCCCCC/C=C/c1ccc(-c2ccccc2)cc1 | – | – | Toxic | 16.6 | 35.8 | 2 | 6.3 | 30.5 | Active | Toxic | 1.6 | 7 | 13.3 | –
CCCCCCCCCCCCc1cn(C[C@@H]2N[C@@H](C)[C@@H](O)[C@H]2O)nn1 | 14 to 45 | 14 to 45 | – | – | – | – | – | – | – | – | – | – | – | –
Cl.NCC(=O)N1CCC[C@H]1COCCCCCC/C=C/c1ccc(-c2ccccc2)cc1 | – | – | Toxic | 6.1 | 9.5 | 0.9 | 5.7 | 24.7 | Active | Toxic | 1.5 | 6 | 6.3 | –
CCCCCCCCCCCCc1cn(C[C@H]2NC[C@H](O)[C@@H]2O)nn1 | 14 to 45 | 14 to 45 | – | – | – | – | – | – | – | – | – | – | – | –
CCCCCCCC/C=C\CCCCCCCCOC[C@@H]1CCCN1C(=O)[C@@H]1CCCN1.Cl | – | – | Toxic | 12.3 | 56.3 | 2.6 | 5 | 74.9 | Active | Toxic | 4.4 | 4.3 | 21.3 | Activity (MIA PaCa-2 [13]): inactive; Activity (MIA PaCa-2 [14]): 1.1%; Activity (MIA PaCa-2 [15]): 6.78%; Activity (BXPC-3 [16]): inactive; Activity (MIA PaCa-2 [17]): 83.47%; Activity (MIA PaCa-2 [18]): 0.16%; Activity (MIA PaCa-2 [19]): inactive; Activity (MIA PaCa-2 [20]): 7.94%; Activity (BXPC-3 [21]): inactive; Activity (MIA PaCa-2 [22]): 8.64%; Activity (MIA PaCa-2 [23]): 10.86%; Activity (MIA PaCa-2 [24]): 81.02%

From ChEMBL document CHEMBL4196088, “Induction of cell killing and autophagy by amphiphilic pyrrolidine derivatives on human pancreatic cancer cells” (Eur J Med Chem, 2018)
